The source made the active and inactive calls. The rule behind the calls is not given here.
Tests used:
[1] = target: T1, Human immunodeficiency virus type 1 integrase (Human immunodeficiency virus 1, UniProt Q7ZJM1); test: Inhibition of wild type HIV1 integrase 3'-processing activity using 5'-end 32P-labeled linear oligonucleotide as substrate preincubated for 30 mins
[2] = Inhibition of human Flag-tagged LEDGF interaction to His6-tagged HIV1 integrase expressed in Escherichia coli BL21 (DE3) preincubated for 20 mins measured after 1 hr by AlphaScreen proximity luminescent assay
[3] = tested on: Human immunodeficiency virus 1; test: Antiviral activity against HIV1 3B infected in human MT4 cells assessed as inhibition of virus-induced cytopathic effect by MTT assay; format: functional, organism-based; settings: Human immunodeficiency virus 1, 3B
HCT-116 = test: Cytotoxicity against human HCT116 p53 +/+ and -/- cells after 72 hrs by MTT assay; format: cell-based; settings: HCT-116, 72 h
[4] = target: T1, Human immunodeficiency virus type 1 integrase; test: Inhibition of wild type HIV1 integrase strand transfer activity using 5'-end 32P-labeled linear oligonucleotide as substrate preincubated for 30 mins
[5] = Inhibition of human Flag-tagged LEDGF interaction to His6-tagged HIV1 integrase expressed in Escherichia coli BL21 (DE3) at 1000 uM preincubated for 20 mins measured after 1 hr by AlphaScreen proximity luminescent assay

T1 sequence (Q7ZJM1 whole entry): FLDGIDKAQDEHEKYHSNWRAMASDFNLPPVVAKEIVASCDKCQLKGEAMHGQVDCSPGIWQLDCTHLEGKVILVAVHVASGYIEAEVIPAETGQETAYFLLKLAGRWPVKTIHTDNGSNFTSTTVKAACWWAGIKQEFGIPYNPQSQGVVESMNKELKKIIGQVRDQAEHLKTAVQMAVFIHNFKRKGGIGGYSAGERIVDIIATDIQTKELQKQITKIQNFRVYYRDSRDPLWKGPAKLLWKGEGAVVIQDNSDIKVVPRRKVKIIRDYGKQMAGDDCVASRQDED

Structure (SMILES)	IC50 [1]	IC50 [2]	IC50 [3]	EC50 (HCT-116)	IC50 [4]	inhibition [5]
COc1ccccc1N1CCN(/N=C/c2ccc(Cl)c([N+](=O)[O-])c2)CC1	> 100 µM	21 µM	> 100 µM	> 10 µM	> 100 µM	–
NNC(=O)c1ccncc1	–	–	–	–	–	inactive
COc1cc(Br)cc(/C=N/NC(=O)c2ccccn2)c1O	17 µM	1.3 µM	> 22 µM	–	13 µM	–
O=[N+]([O-])c1ccccc1/C=N/N1CCN(Cc2ccccc2)CC1	–	24 µM	–	< 10 µM	–	–
CC(Oc1ccccc1)C(=O)N/N=C/c1ccccc1O (stereo unspecified)	–	50 µM	–	6.5 µM	–	–
CCN(CC)c1ccc(/C=C2\CCC(/C=N/N3CCN(c4ccc(C)cc4)CC3)=C2N2CCOCC2)cc1	–	46 µM	–	3.3 µM	–	–
NNC(=O)Cn1cnc(-c2ccc(F)cc2)c1	–	> 50 µM	–	–	–	–
Cc1nnc(NN)c2c1[nH]c1ccccc12	> 100 µM	5 µM	> 50 µM	–	> 100 µM	–
Cc1cc(C)nc(N/N=C/c2cccc(O)c2)n1	–	> 50 µM	–	4 µM	–	–
O=C(N/N=C/c1c(O)ccc2ccccc12)c1n[nH]c2c1CCC2	> 100 µM	4 µM	> 17 µM	< 1 µM	> 100 µM	–
COCC/N=c1/scc(-c2cccs2)n1/N=C/c1cc(Br)c(O)c(OC)c1	> 100 µM	14 µM	> 15 µM	> 10 µM	> 100 µM	–
NNC(=O)c1cc(-c2ccc(Cl)cc2)n[nH]1	–	> 50 µM	–	10 µM	–	–
Cc1nnc(NNC(=O)c2ccccc2)c2c1[nH]c1ccccc12	–	> 50 µM	–	–	–	–
CC/C(=N\NC(=O)c1ccc(F)cc1)c1cc(Cl)cc(Cl)c1O	–	> 50 µM	–	2.5 µM	–	–
O=C(N/N=C/c1ccc(O)cc1O)c1ccncc1	> 100 µM	4 µM	–	4 µM	> 100 µM	–
C/C(=N\Nc1ccc(S(=O)(=O)Nc2ccccc2)cc1[N+](=O)[O-])c1cc(O)ccc1O	> 100 µM	13 µM	> 28 µM	–	> 100 µM	–
O=C(N/N=C/c1ccc(Cl)cc1Cl)c1cnccn1	> 100 µM	> 50 µM	–	> 10 µM	> 100 µM	–
O=C1C(O)=Cc2ccccc2/C1=N\Nc1ccc(Cl)cc1	> 100 µM	3 µM	> 40 µM	–	100 µM	–
CCOc1cccc(/C=N/NC(=O)c2n[nH]c3c2CCC3)c1O	> 100 µM	2 µM	> 4 µM	6 µM	> 100 µM	–
CC/N=c1/scc(-c2cc(OC)ccc2OC)n1/N=C(\C)c1ccco1	> 100 µM	8 µM	> 60 µM	> 10 µM	> 100 µM	–

Structure (SMILES)	IC50 [1]	IC50 [2]	IC50 [3]	EC50 (HCT-116)	IC50 [4]	inhibition [5]
CCNc1nc(NCC)nc(C(=O)Nc2ccccc2)n1	–	21 µM	–	–	–	–
Cc1ccc(N/N=C2\Sc3ccccc3C2=O)cc1	> 100 µM	6 µM	> 100 µM	10 µM	> 100 µM	–
Cc1nnc(Cl)c2c1[nH]c1ccccc12	–	> 50 µM	–	–	–	–
COc1ccc(CN2CCCN(c3ccc(S(=O)(=O)Nc4ccccc4)cc3[N+](=O)[O-])CC2)cc1	–	34 µM	24 µM	> 10 µM	–	–
CCN(CC)c1ccc(/C=C2\CCC(/C=N/N=C/c3c(C)[nH]c4ccccc34)=C2N2CCOCC2)cc1	–	40 µM	–	> 10 µM	–	–
c1ccc(/N=N/C(=N/Nc2ccccc2)c2ccccc2)cc1	> 100 µM	20 µM	> 5 µM	> 10 µM	> 100 µM	–
COc1ccc(O)c(/C=N/NC(=O)c2sc3ccccc3c2O)c1	> 100 µM	38 µM	–	8 µM	> 100 µM	–
O=C(N/N=C/c1ccc(Cl)cc1Cl)c1n[nH]c2c1CCC2	–	> 50 µM	–	< 1 µM	–	–
COCCN1C(=O)/C(=C\NNC(=O)c2cc(Cl)ccc2O)C(=O)NC1=S	90 µM	13 µM	> 40 µM	10 µM	80 µM	–
CCNc1nc(NCC)nc(C(=O)NN)n1	< 100 µM	6 µM	> 20 µM	–	< 100 µM	–
O=C(N/N=C/c1cc(Br)ccc1O)C1=NNC2CCCCC12 (stereo unspecified)	29 µM	4 µM	–	5 µM	15 µM	–
O=C(N/N=C/c1cccnc1)C1=NNC2CCCCC12 (stereo unspecified)	–	> 50 µM	> 20 µM	5 µM	–	–
FC(F)(F)c1ccccc1/C=N/N1CCN(Cc2ccccc2)CC1	> 100 µM	35 µM	–	> 10 µM	> 100 µM	–
COc1c(Cl)cc(Cl)cc1/C=N/NC(=O)c1ccncc1	> 100 µM	> 50 µM	–	–	> 100 µM	–
Cc1[nH]n(-c2ccccc2)c(=O)c1/C=N/Nc1ccc([N+](=O)[O-])cc1	–	6 µM	–	> 10 µM	–	–
Cc1occc1C(=O)NN/C=C1/C(=O)N(c2ccccc2Cl)C(=O)c2ccccc21	90 µM	8 µM	–	6.5 µM	75 µM	–
CN(C)c1ccc(/N=N/c2ccc(Cl)cc2)cc1	> 100 µM	2 µM	> 100 µM	> 10 µM	> 100 µM	–
COc1ccccc1NS(=O)(=O)c1ccc(N/N=C(\C)c2ccccc2Br)c([N+](=O)[O-])c1	> 100 µM	6 µM	12 µM	> 10 µM	> 100 µM	–
CC(C)c1ccc(/C=N/N2CCN(Cc3ccccc3)CC2)cc1	–	50 µM	–	> 10 µM	–	–
O=C(N/N=C/c1c(O)ccc2ccccc12)c1cc[nH]n1	> 100 µM	7 µM	> 14 µM	1.5 µM	> 100 µM	–

Structure (SMILES)	IC50 [1]	IC50 [2]	IC50 [3]	EC50 (HCT-116)	IC50 [4]	inhibition [5]
C=CC/N=c1/scc(-c2ccccc2Br)n1/N=C/c1ccccn1	> 100 µM	23 µM	> 1 µM	–	> 100 µM	–
O=C(CP(=O)(c1ccccc1)c1ccccc1)N/N=C/c1cc(Br)cc(Br)c1O	100 µM	50 µM	–	3.3 µM	100 µM	–
COc1cc(/C=N/Nc2ccc(S(=O)(=O)Nc3ccccc3C(=O)O)cc2[N+](=O)[O-])ccc1O	> 100 µM	25 µM	> 10 µM	–	> 100 µM	–
O=C(N/N=C/c1c(O)ccc2ccccc12)c1ccncc1	> 100 µM	6 µM	–	–	> 100 µM	–
Cn1cccc1/C=N/N1CCN(Cc2ccccc2)CC1	> 100 µM	32 µM	–	> 10 µM	> 100 µM	–
CCN(CC)c1ccc(/C=C2\CCC(/C=N/N=C/c3cccnc3)=C2N2CCOCC2)cc1	> 100 µM	3 µM	> 20 µM	> 10 µM	> 100 µM	–
Oc1ccc(Br)cc1/C=N/Nc1cccc2cccnc12	> 100 µM	> 50 µM	–	–	> 100 µM	–
Cc1sc2ncnc(N/N=C/c3c(O)ccc4ccccc34)c2c1C	77 µM	6 µM	–	< 1 µM	52 µM	–
O=C(N/N=C/c1ccccc1O)c1cnccn1	> 100 µM	0.4 µM	> 40 µM	9 µM	> 100 µM	–
COC(=O)c1ccc(/N=N/c2ccc([P+](c3ccccc3)(c3ccccc3)c3ccccc3)cc2)cc1	–	36 µM	–	0.4 µM	–	–
CC/N=c1/scc(-c2ccc(Br)cc2)n1/N=C/c1ccc(O)c(O)c1O	–	< 25 µM	> 35 µM	> 10 µM	–	–
COc1ccc(OC)c(/C=N/NC(=O)c2n[nH]c3c2CCC3)c1	> 100 µM	> 50 µM	> 40 µM	> 10 µM	> 100 µM	–
O=C(Nn1cnc2ccccc2c1=O)c1cnccn1	–	39 µM	–	–	–	–
O=C(N/N=C/c1cc(Br)ccc1O)c1cccnc1	> 100 µM	4 µM	> 3 µM	–	> 100 µM	–
C/C(=N\N1CCN(Cc2ccccc2Cl)CC1)c1ccc([N+](=O)[O-])cc1	> 100 µM	19 µM	> 100 µM	> 10 µM	> 100 µM	–
Cc1nc2ccccc2c(=O)n1/N=C/c1ccccc1O	–	> 50 µM	–	10 µM	–	–
C/C(=N\NC(=O)C1CCCCC1)c1ccccc1O	–	93 µM	> 20 µM	> 10 µM	–	–
Oc1ccc(/C=N/N2CCN(c3ccccc3)CC2)cc1O	69 µM	16 µM	–	> 10 µM	31 µM	–
O=C(COc1ccc(Cl)cc1Cl)N/N=C/c1cc(Br)ccc1O	> 100 µM	50 µM	–	> 10 µM	> 100 µM	–
CC(=O)c1ccc(/N=N/c2ccc(C[P+](c3ccccc3)(c3ccccc3)c3ccccc3)cc2)cc1	> 100 µM	12 µM	–	0.5 µM	> 100 µM	–

Reference: ChEMBL document CHEMBL2311445, “Discovery of novel inhibitors of LEDGF/p75-IN protein-protein interactions” (Bioorg Med Chem, 2013)
